In test [1] the test system is Avena sativa. The experiment in a line: Induction of phytoalexin secretion in Avena sativa Pc-2 leaf lower epidermis assessed as amount of avenanthramide B at 0.1 mg/ml by HPLC analysis relative to control. Format: functional, organism-based.
In test [2] the test system is Avena sativa. Briefly: Induction of phytoalexin secretion in Avena sativa Shokan-1 leaf lower epidermis assessed as amount of avenanthramide D at 0.1 mg/ml by HPLC analysis relative to control. Format: functional.
The test system of test [3] is Avena sativa. Briefly: Induction of phytoalexin secretion in Avena sativa Pc-2 leaf lower epidermis assessed as amount of avenanthramide A at 0.1 mg/ml by HPLC analysis relative to control. Format: functional, organism-based.
Test [4] deals with Avena sativa. Briefly: Induction of phytoalexin avenanthramide A secretion in Avena sativa Shokan-1 leaf lower epidermis at 0.1 mg/ml after 24 hr in presence of CaCl2. Format: functional, organism-based.
In test [5] the test system is Avena sativa. The experiment in a line: Induction of phytoalexin secretion in Avena sativa Pc-2 leaf lower epidermis assessed as amount of avenanthramide D at 0.1 mg/ml by HPLC analysis relative to control. Format: functional, organism-based.
In test [6] the test system is Avena sativa. The experiment in a line: Induction of electrolyte leakage in Avena sativa Shokan-1 leaf lower epidermis at 0.1 mg/ml after 24 hr by conductivity test. Format: functional, organism-based.
Test [7] has as its system Avena sativa. Briefly: Induction of phytoalexin secretion in Avena sativa Pc-2 leaf lower epidermis assessed as amount of avenanthramide L at 0.1 mg/ml by HPLC analysis relative to control. Format: functional, organism-based.
Test [8] concerns Avena sativa. The experiment in a line: Induction of phytoalexin secretion in Avena sativa Shokan-1 leaf lower epidermis assessed as amount of avenanthramide A at 0.1 mg/ml by HPLC analysis relative to control. Format: functional.
The subject of test [9] is Avena sativa. The experiment in a line: Induction of phytoalexin secretion in Avena sativa Pc-2 leaf lower epidermis assessed as amount of avenanthramide G at 0.1 mg/ml by HPLC analysis relative to control. Format: functional, organism-based.
Test [10] has as its system Avena sativa. Briefly: Induction of phytoalexin secretion in Avena sativa Shokan-1 leaf lower epidermis assessed as amount of avenanthramide L at 0.1 mg/ml by HPLC analysis relative to control. Format: functional.
The subject of test [11] is Avena sativa. The experiment in a line: Induction of phytoalexin secretion in Avena sativa Shokan-1 leaf lower epidermis assessed as amount of avenanthramide B at 0.1 mg/ml by HPLC analysis relative to control. Format: functional.
Test [12] has as its system Avena sativa. Briefly: Induction of phytoalexin secretion in Avena sativa Shokan-1 leaf lower epidermis assessed as amount of avenanthramide G at 0.1 mg/ml by HPLC analysis relative to control. Format: functional.
For test [13], the system named is Avena sativa. The experiment in a line: Induction of phytoalexin secretion in Avena sativa Shokan-1 leaf lower epidermis assessed as amount of avenanthramide G at 1 mg/ml by HPLC analysis relative to control. Format: functional.
For test [14], the system named is Avena sativa. The experiment in a line: Induction of phytoalexin secretion in Avena sativa Pc-2 leaf lower epidermis assessed as amount of avenanthramide G at 1 mg/ml by HPLC analysis relative to control. Format: functional, organism-based.
The subject of test [15] is Avena sativa. Briefly: Induction of phytoalexin secretion in Avena sativa Pc-2 leaf lower epidermis assessed as amount of avenanthramide B at 1 mg/ml by HPLC analysis relative to control. Format: functional, organism-based.
Test [16] deals with Avena sativa. The experiment in a line: Induction of phytoalexin secretion in Avena sativa Shokan-1 leaf lower epidermis assessed as amount of avenanthramide A at 1 mg/ml by HPLC analysis relative to control. Format: functional.
The test system of test [17] is Avena sativa. The experiment in a line: Induction of phytoalexin secretion in Avena sativa Shokan-1 leaf lower epidermis assessed as amount of avenanthramide L at 1 mg/ml by HPLC analysis relative to control. Format: functional.
The test system of test [18] is Avena sativa. The experiment in a line: Induction of phytoalexin secretion in Avena sativa Shokan-1 leaf lower epidermis assessed as amount of avenanthramide D at 1 mg/ml by HPLC analysis relative to control. Format: functional.
Test [19] has as its system Avena sativa. Briefly: Induction of phytoalexin avenanthramide A secretion in Avena sativa Shokan-1 leaf lower epidermis at 1 mg/ml after 24 hr in presence of CaCl2. Format: functional, organism-based.
The subject of test [20] is Avena sativa. The experiment in a line: Induction of phytoalexin secretion in Avena sativa Pc-2 leaf lower epidermis assessed as amount of avenanthramide A at 1 mg/ml by HPLC analysis relative to control. Format: functional, organism-based.
In test [21] the test system is Avena sativa. The experiment in a line: Induction of electrolyte leakage in Avena sativa Shokan-1 leaf lower epidermis at 1 mg/ml after 24 hr by conductivity test. Format: functional, organism-based.
Test [22] relates to Avena sativa. Briefly: Induction of phytoalexin secretion in Avena sativa Pc-2 leaf lower epidermis assessed as amount of avenanthramide D at 1 mg/ml by HPLC analysis relative to control. Format: functional, organism-based.
The test system of test [23] is Avena sativa. Briefly: Induction of phytoalexin secretion in Avena sativa Pc-2 leaf lower epidermis assessed as amount of avenanthramide L at 1 mg/ml by HPLC analysis relative to control. Format: functional, organism-based.
Test [24] has as its system Avena sativa. The experiment in a line: Induction of phytoalexin avenanthramide A secretion in Avena sativa Shokan-1 leaf lower epidermis at 1 mg/ml after 24 hr. Format: functional, organism-based.
The test system of test [25] is Avena sativa. Briefly: Induction of phytoalexin secretion in Avena sativa Shokan-1 leaf lower epidermis assessed as amount of avenanthramide B at 1 mg/ml by HPLC analysis relative to control. Format: functional.
Test [26] concerns Avena sativa. Briefly: Induction of phytoalexin avenanthramide A secretion in Avena sativa Shokan-1 leaf lower epidermis at 1 mg/ml upto 24 hr. Format: functional, organism-based.
Test [27] relates to Avena sativa. The experiment in a line: Induction of electrolyte leakage in Avena sativa Pc-2 leaf lower epidermis at 1 ng/ml after 24 hr by conductivity test. Format: functional, organism-based.
Test [28] has as its system Avena sativa. The experiment in a line: Induction of phytoalexin avenanthramide A secretion in Avena sativa Pc-2 leaf lower epidermis at 1 ng/ml after 24 hr in presence of CaCl2. Format: functional, organism-based.
Test [29] has as its system Avena sativa. The experiment in a line: Induction of phytoalexin secretion in Avena sativa Pc-2 leaf lower epidermis assessed as amount of avenanthramide L at 1 ng/ml by HPLC analysis relative to control. Format: functional.
Test [30] concerns Avena sativa. Briefly: Induction of phytoalexin avenanthramide A secretion in Avena sativa Pc-2 leaf lower epidermis at 5 mg/ml after 24 hr. Format: functional, organism-based.
For test [31], the system named is Avena sativa. Briefly: Induction of phytoalexin secretion in Avena sativa Pc-2 leaf lower epidermis assessed as amount of avenanthramide G at 1 ng/ml by HPLC analysis relative to control. Format: functional.
For test [32], the system named is Avena sativa. The experiment in a line: Induction of phytoalexin secretion in Avena sativa Pc-2 leaf lower epidermis assessed as amount of avenanthramide A at 1 ng/ml by HPLC analysis relative to control. Format: functional.
In test [33] the test system is Avena sativa. The experiment in a line: Induction of electrolyte leakage in Avena sativa Pc-2 leaf lower epidermis at 1 ng/ml after 24 hr in presence of CaCl2. Format: functional, organism-based.
Test [34] concerns Avena sativa. Briefly: Induction of phytoalexin avenanthramide A secretion in Avena sativa Pc-2 leaf lower epidermis at 100 ng/ml after 24 hr. Format: functional, organism-based.
The subject of test [35] is Avena sativa. Briefly: Induction of phytoalexin secretion in Avena sativa Pc-2 leaf lower epidermis assessed as amount of avenanthramide D at 1 ng/ml by HPLC analysis relative to control. Format: functional.

Activity calls are given as the source filed them. The rule behind the calls is not given here.

Regarding `N[C@H]1[C@H](O[C@H]2[C@H](O)[C@@H](N)[C@H](O[C@H]3[C@H](O)[C@@H](N)[C@H](O[C@H]4[C@H](O)[C@@H](N)[C@H](O[C@H]5[C@H](O)[C@@H](N)C(O)O[C@@H]5CO)O[C@@H]4CO)O[C@@H]3CO)O[C@@H]2CO)O[C@H](CO)[C@@H](O)[C@@H]1O` (stereo not given in full) [CHITOPENTAOSE], the result in the test on Avena sativa [1], in the test on Avena sativa [3], with Avena sativa [4], in the test with Avena sativa [5], with Avena sativa [7] and in the test with Avena sativa [9] was inactive. For the same molecule, the “fold change (FC)” value with Avena sativa [2] is listed as 10.7; in the test on Avena sativa [8], 100; in the test with Avena sativa [10], 1.4; in the test on Avena sativa [11], 3.4; in the test on Avena sativa [12], 13. Moreover, in the test with Avena sativa [6], the outcome was Active.
As to `CC(=O)N[C@H]1[C@H](O[C@H]2[C@H](O)[C@@H](NC(C)=O)[C@H](O[C@H]3[C@H](O)[C@@H](NC(C)=O)C(O)O[C@@H]3CO)O[C@@H]2CO)O[C@H](CO)[C@@H](O[C@@H]2O[C@H](CO)[C@@H](O[C@@H]3O[C@H](CO)[C@@H](O)[C@H](O)[C@H]3NC(C)=O)[C@H](O)[C@H]2NC(C)=O)[C@@H]1O` (stereo not given in full) [N-ACETYLCHITOPENTAOSE], the “fold change (FC)” value with Avena sativa [13] worked out at 2.8; with Avena sativa [16], 100; in the test with Avena sativa [17], 20.4; in the test on Avena sativa [18] it was 1.9; in the test on Avena sativa [25], 26. Moreover, the result in the test on Avena sativa [14], in the test with Avena sativa [15], in the test with Avena sativa [19], with Avena sativa [20], in the test on Avena sativa [21] and with Avena sativa [22] was inactive. Also, the outcome in the test on Avena sativa [23] and in the test with Avena sativa [24] was inactive. In the test on Avena sativa [26], the result was Active.
On to `CC(C)C1OC2=C(CC(C(=O)O)NC(=O)/C(=C/Cl)NC(=O)C1NC(=O)C(NC(=O)C(CC(C)C(Cl)Cl)NC(=O)C(O)O)C(O)CCCN)C(=O)CC2` (stereo not given) [VICTORIN D], for which the outcome in the test with Avena sativa [27] and with Avena sativa [34] was Active. Also, the result in the test with Avena sativa [28], in the test on Avena sativa [30] and in the test on Avena sativa [33] was inactive. The “fold change (FC)” value in the test with Avena sativa [29] was 3; in the test with Avena sativa [31] it was 84.6; with Avena sativa [32], 100; with Avena sativa [35], 38.4.

For the origin of these results see ChEMBL document CHEMBL3045325, “Comparative Studies of Elicitors That Induce Phytoalexin in Oats” (1996).
